# Several values for one entry are separate records, joined by “and”; a condition that tells them apart may be missing. Identical values can stand only once. Like-named read-outs stand apart in the source and are kept apart here.
# Experiments:
# [1] = tested on: pseudorabies virus (Suid herpes virus 1, SHV-1); settings: cited from earlier work
# ToMV = settings: plants infected with ToMV; one range printed for CMV and ToMV; cited from earlier work
# CMV = settings: plants infected with CMV; one range printed for CMV and ToMV; cited from earlier work
# influenza A2 (Japan 305) = tested on: influenza A2 (Japan 305); design: dose or concentration left out as unconfirmed; settings: in-vitro; 1/4 of its estimated maximum tolerated concentration; cited from earlier work
# cucumber mosaic virus = type: in vivo, Cucumber mosaic virus (CMV)
# measles = settings: in-vitro; cited from earlier work
# herpes viruses = settings: in-vitro; cited from earlier work
# HSVlesions = HSVlesions in humans; cited from earlier work
# HSV = settings: legend not given; cited from earlier work
# PVX = settings: susceptible virus PVX; cited from earlier work
# CLSV = settings: susceptible virus CLSV; cited from earlier work
# VSV = settings: legend not given; cited from earlier work
# Vaccinia = settings: legend not given; cited from earlier work
# adenovirus = settings: no symbol given; cited from earlier work
# HSV Keratitis = HSV Keratitis in rabbits; cited from earlier work
# [2] = 1000-ppm 2-Thiouracil as control
molecule,measurement,setting,value
crossasteroside B,inhibit plaque formation,[1],43%
"O=C1NCCCN1CN1CCOCC1 [DD13, 1-Morpholino methyl-tetrahydro-2-(1H)-pyrimidinone]",protective effect in % plants infected,ToMV,97-100%
same,protective effect in % plants infected,CMV,97-100%
NC12CC3CC(CC(C3)C1)C2 [Amantadine],inhibition of influenza A2 (Japan 305),influenza A2 (Japan 305),98%
same,Average No of lesions Control,cucumber mosaic virus; 1000-ppm Amantadine as control,4.5 and 4.0 and 4.8
same,No of lesions on Control,cucumber mosaic virus; 1000-ppm Amantadine as control,45 and 40 and 48
crossasteroside D,inhibit plaque formation,[1],27%
C[C@H]1O[C@@H](O[C@H]2CC[C@@]3(C)[C@@H](CC[C@]4(C)[C@@H]3C=C[C@]35OC[C@@]6(CCC(C)(C)C[C@H]63)[C@H](O)C[C@]54C)[C@]2(C)CO)[C@H](O)[C@@H](O[C@@H]2O[C@H](CO)[C@@H](O)[C@H](O)[C@H]2O)[C@H]1O [Saikosaponin-d],concentration that causes inactivation,measles,greater than 5 µM
same,concentration that causes inactivation,herpes viruses,greater than 5 µM
Carbenoxolone/ cicloxolone,Active in vivo,HSVlesions,HSVlesions in humans
same,Virucidal,HSV,+HSV
NC(=O)c1ncn([C@@H]2O[C@H](CO)[C@@H](O)[C@H]2O)n1 [Ribavirin],concentration needed to inhibit local lesion development and to prevent infection,PVX,Approximately 1000 ppm
same,concentration needed to inhibit local lesion development and to prevent infection,CLSV,Approximately 1000 ppm
CC1(C)[C@@H](O[C@H]2O[C@H](C(=O)O)[C@@H](O)[C@H](O)[C@H]2O[C@@H]2O[C@H](C(=O)O)[C@@H](O)[C@H](O)[C@H]2O)CC[C@]2(C)[C@H]3C(=O)C=C4[C@@H]5C[C@@](C)(C(=O)O)CC[C@]5(C)CC[C@@]4(C)[C@]3(C)CC[C@@H]12 [Glycyrrhizin],Virucidal,HSV,+slight effect
O=c1cc[nH]c(=S)[nH]1 [2-Thiouracil],Average No of lesions Control,cucumber mosaic virus; [2],1.9 and 1.7 and 1.1
same,No of lesions on Control,cucumber mosaic virus; [2],19 and 17 and 11
CC1(C)[C@@H](O)CC[C@]2(C)[C@H]3C(=O)C=C4[C@@H]5C[C@@](C)(C(=O)O)CC[C@]5(C)CC[C@@]4(C)[C@]3(C)CC[C@@H]12 [Glycyrrhetinic acid],Virucidal,HSV,+HSV only
Hydroxy-protoprimulagenin,Other viruses: VSV,VSV,VSV Vaccinia adenovirus
same,Other viruses: Vaccinia,Vaccinia,VSV Vaccinia adenovirus
same,Virucidal,HSV,+HSV only
same,Other viruses: adenovirus,adenovirus,VSV Vaccinia adenovirus
same,Active in vivo,HSV Keratitis,HSV Keratitis in rabbits

# Source: patent EP1489910B1 (priority 2002, dated 2003)
